In PMC2650103 (Journal of medicinal chemistry, 2008):
Like-named read-outs stand apart in the source and are kept apart here.

Tests used:
[1] = system: vaccinia virus WR in BS-C-1 cells; experiment: microbe, parasite or virus in culture; type: cell-based; conditions: Orthopoxvirus vaccinia, BSC-1, 20 h, read-out: Cell Prot EC50
[2] = system: vaccinia virus WR in BS-C-1 cells; type: cell-based
BS-C-1 cells = conditions: African green monkey
[3] = cited from earlier work
[4] = Solubility in cell growth medium by light scattering; conditions: at the EC50 / over the range of concentrations used in the activity assays
[5] = system: vaccinia virus WR in BS-C-1 cells; experiment: microbe, parasite or virus in culture; type: cell-based; conditions: Orthopoxvirus vaccinia, BSC-1, 20 h, read-out: Plaque Red EC50
[6] = system: multiple orthopoxviruses, including two strains of variola virus; conditions: cited from earlier work

Structure (SMILES) | EC50 [1] [µM] | Trapped by dsDNA [2] | Tox 72 h TC50 (BS-C-1 cells) | Tox 120 h TC50 (BS-C-1 cells) | Toxicity on intravenous administration [3] | Solubility in cell growth medium [4] | EC50 [5] [µM] | Growth of orthopoxviruses in cell cultures [6]
Nc1ccn(C[C@@H](CO)OCP(=O)(O)O)c(=O)n1.O.O [CDV, (S)-1-(3-hydroxy-2-phosphonylmethoxypropyl)cytosine, reference compound] | 132 | No | >500 ∞M | 300 ∞M | nephrotoxicity |  |  | 
COC(=O)c1cccc2c1-c1ccccc1/C2=N\O [Compound 1] |  | No |  | 20 ∞M |  |  |  | 
CCOC(=O)c1c(NC(=O)/C=C/C(=O)O)sc(C)c1-c1ccccc1 [Compound 2] |  | No |  |  |  |  |  | 
CCn1c2ccccc2c2ccc(/C=N/n3cnnc3)cc21 [Compound 3] |  | No | 36 ∞M | 3 ∞M |  |  |  | 
Cc1csc2c(N3CCN(C(=O)NC(C)(C)C)CC3)ncnc12 [Compound 4] |  | No |  | 40 ∞M |  |  |  | 
CCNc1nc(SCc2ccc(Cl)cc2)nc2sc3c(c12)CCN(C)C3 [Compound 5] |  | No |  | 5 ∞M |  |  |  | 
Cc1cc(/N=C/c2cc(Cl)cc(Cl)c2O)no1 [Compound 6] |  | No | 50 ∞M | 20 ∞M |  |  |  | 
Cc1c(/N=C/c2cc(Br)cc(Br)c2O)cccc1C(=O)O [Compound 7] |  | No | 38 ∞M | 20 ∞M |  |  |  | 
Cc1cc(OC(=O)c2ccco2)nc(SCc2c(Cl)cccc2Cl)n1 [Compound 8] |  | No | >100 ∞M | >100 ∞M |  | just slightly insoluble |  | 
O=C(Nc1ccccc1C(=O)O)OCC1c2ccccc2-c2ccccc21 [Compound 9] | 104 | No | 40 ∞M | 20 ∞M |  |  |  | 
CCS(=O)(=O)N1CCN=C1SCc1ccc(Cl)cc1Cl [Compound 10] |  | No |  |  |  | just slightly insoluble |  | 
Cc1ccc2c(Sc3ccc(Cl)cc3)c(C(=O)O)[nH]c2c1 [Compound 11] | 130 | No | 174 ∞M | 120 ∞M |  |  |  | 
N=C1S/C(=C/c2ccco2)C(=O)N1c1nccs1 [Compound 12] |  | No | >100 ∞M | 50 ∞M |  | just slightly insoluble |  | 
O=C(O)Cn1c2ccc(Cl)cc2c2nc3ccccc3nc21 [Compound 13] |  | No | 13 ∞M | 30 ∞M |  | just slightly insoluble |  | 
N=C1/C(=C/c2coc3ccccc3c2=O)C(=O)N=C2SC=NN12 [Compound 14] | 188 | No | >200 ∞M | 50 ∞M |  |  | 150 | 
CC(=O)n1c2ccccc2c2nc(C)sc21 [Compound 15] | 236 | No | >200 ∞M | 75 ∞M |  |  |  | 
O=C1/C(=C/C2CCCO2)CC/C1=C\C1CCCO1 (stereo not drawn) [Compound 16] |  | No | >100 ∞M | 50 ∞M |  | just slightly insoluble |  | 
O=C(NN1C(=O)C2C3C=CC(C4CC34)C2C1=O)c1ccc(C(F)(F)F)cc1 (stereo not drawn) [Compound 30, 4-trifluoromethyl-N-(3,3a,4,4a,5,5a,6,6a-octahydro-1,3-dioxo-4,6-ethenocycloprop[f]isoindol-2(1H)-yl)-benzamide] |  |  |  |  |  |  |  | inhibit the growth
